Laboratory results: publication PMC4273223, “(2R,1'S,2'R)- and (2S,1'S,2'R)-3-[2-Mono(di,tri)fluoromethylcyclopropyl]alanines and their incorporation into hormaomycin analogues” (Beilstein Journal of Organic Chemistry, 2014)
Values after ≈ are worked out from the molar mass of the structure shown. Counter-ions that a name gives are not always drawn. Starred links: 1 amine or outer side, 2 acyl side, 3 side chain; linkers in the order of their positions; H or OH if unused. Positions of bridges follow the written chain, without caps; N, C: chain ends. Non-standard residues stand in square brackets, D forms with d. Residues, ends and D or L forms follow the SMILES beside them. *: point of attachment. X1 = O=C([C@@H](C[C@@H]1C[C@H]1C(F)(F)F)N[*:1])[*:2]; X2 = C/C=C\[C@H]1C[C@@H](C(=O)[*:2])N([*:1])C1; Phe(3R-Me) = C[C@H](c1ccccc1)[C@H](N)C(=O)O; d(aThr) = C[C@@H](O)[C@@H](N)C(=O)O; Tfa = O=C(C(F)(F)F)*

Tests used:
[1] = tested on: Plasmodium falciparum strain K1; assay: microbe, parasite or virus in culture
Description: (§1) The syntheses of hormaomycin (1) itself and of its all-peptide aza-analogues 60 and 61 (Figure 6) as developed by Zlatopolskiy et al., were reproduced in order to provide large enough quantities for biological tests of their antimalarial activities.
(§2) In vitro antiprotozoal activity assays: The in vitro activities against the protozoan parasites L. donovani and P. falciparum as well as cytotoxicity assessments against L6 cells were determined as reported elsewhere.

[2] = tested on: Leishmania donovani strain MHOM-ET-67/L82; assay: microbe, parasite or virus in culture; conditions: for activity against L. donovani (in words): in vitro
Description: as §1, §2

[3] = set-up: method as in PMID 12760691; conditions: cited from earlier work
coryneform bacteria = tested on: coryneform bacteria; set-up: method as in doi:10.1002/hlca.19890720303, doi:10.1002/ange.19901020122; conditions: cited from earlier work
L6 cells = assay: cells
Description: as §2

Row | IC50 against Leishmania donovani strain MHOM-ET-67/L82 [2] [µg/mL] | IC50 against Plasmodium falciparum strain K1 [1] [µg/mL] | SMILES | IC50 against L6 cells (L6 cells) [µg/mL] | other results
1 |  |  | CCN(CC)CCCC(C)Nc1ccnc2cc(Cl)ccc12 (stereo not shown) [Chloroquine, reference compound] |  | IC50 ([1]; Plasmodium falciparum, K1, read-out: IC50 against Plasmodium falciparum strain K1): 0.089 µg/mL (≈ 0.278 µM)
2 |  |  | C/C=C\[C@H]1C[C@H]2C(=O)O[C@H](C)[C@@H](NC(=O)[C@H](C[C@@H]3C[C@H]3[N+](=O)[O-])NC(=O)c3ccc(Cl)n3O)C(=O)N[C@@H]([C@H](C)c3ccccc3)C(=O)N[C@H](C[C@@H]3C[C@H]3[N+](=O)[O-])C(=O)N[C@@H]([C@H](C)c3ccccc3)C(=O)N[C@@H]([C@@H](C)CC)C(=O)N2C1 [Compound 1, hormaomycin] |  | activity against L. donovani (in words) [2]: showed an activity against L. donovani; antimalarial activity (in words) ([1]; in vitro): good and selective antimalarial activities; antimalarial activity (in words) [3]: interesting antimalarial activity; inhibitory effect on coryneform bacteria (in words) (coryneform bacteria): exceptionally selective inhibitory effect
3 | 0.205 (≈ 0.174 µM) | 0.183 (≈ 0.156 µM) | C/C=C\[C@H]1C[C@H]2C(=O)O[C@H](C)[C@@H](NC(=O)[C@H](C[C@@H]3C[C@H]3C(F)(F)F)NC(=O)c3ccc(Cl)n3O)C(=O)N[C@@H]([C@H](C)c3ccccc3)C(=O)N[C@H](C[C@@H]3C[C@H]3C(F)(F)F)C(=O)N[C@@H]([C@H](C)c3ccccc3)C(=O)N[C@@H]([C@@H](C)CC)C(=O)N2C1 [Compound 8a] | 40 (≈ 34 µM) | activity against L. donovani (in words) [2]: showed an activity against L. donovani; activity against L. donovani lower than that of hormaomycin (1) ([2]; relative to hormaomycin (1)): 37%
4 | 2.13 (≈ 2.13 µM) | 0.042 (≈ 0.042 µM) | C/C=C\[C@H]1C[C@H]2C(=O)O[C@H](C)[C@@H](NC(=O)OCc3ccc(C)cc3)C(=O)N[C@@H]([C@H](C)c3ccccc3)C(=O)N[C@H](C[C@@H]3C[C@H]3C(F)(F)F)C(=O)N[C@@H]([C@H](C)c3ccccc3)C(=O)N[C@@H]([C@@H](C)CC)C(=O)N2C1 [Compound 52a] | >90 | 
5 | 1.73 (≈ 1.93 µM) | 0.151 (≈ 0.169 µM) | C/C=C\[C@H]1C[C@H]2C(=O)O[C@H](C)[C@@H](NC(C)=O)C(=O)N[C@@H]([C@H](C)c3ccccc3)C(=O)N[C@H](C[C@@H]3C[C@H]3C(F)(F)F)C(=O)N[C@@H]([C@H](C)c3ccccc3)C(=O)N[C@@H]([C@@H](C)CC)C(=O)N2C1 [Compound 58] (Ac-[d(aThr)][Phe(3R-Me)][X1][Phe(3R-Me)]I[X2]; ester 1-C) | >90 | 
6 | 2.37 | 0.265 | C/C=C\[C@H]1C[C@H]2C(=O)O[C@H](C)[C@@H](NC(=O)C(F)(F)F)C(=O)N[C@@H]([C@H](C)c3ccccc3)C(=O)N[C@H](C[C@@H]3C[C@H]3C(F)(F)F)C(=O)N[C@@H]([C@H](C)c3ccccc3)C(=O)N[C@@H]([C@@H](C)CC)C(=O)N2C1 [Compound 59] (Tfa-[d(aThr)][Phe(3R-Me)][X1][Phe(3R-Me)]I[X2]; ester 1-C) | >90 | 
7 |  | 0.061 (≈ 0.0633 µM) | C/C=C\[C@H]1C[C@H]2C(=O)NC[C@@H](NC(=O)OCc3ccc(C)cc3)C(=O)N[C@@H]([C@H](C)c3ccccc3)C(=O)N[C@H](C[C@@H]3C[C@H]3[N+](=O)[O-])C(=O)N[C@@H]([C@H](C)c3ccccc3)C(=O)N[C@@H]([C@@H](C)CC)C(=O)N2C1 [Compound 61] |  | 
8 |  |  | CCCCCCCCCCCCCCCCOP(=O)([O-])OCC[N+](C)(C)C [Miltefosine, reference compound] |  | IC50 ([2]; Leishmania donovani, read-out: IC50 against Leishmania donovani strain MHOM-ET-67/L82): 0.143 µg/mL (≈ 0.351 µM)
9 |  |  | COc1cc([C@@H]2c3cc4c(cc3[C@H](O)[C@H]3COC(=O)[C@H]23)OCO4)cc(OC)c1OC [Podophyllotoxin, reference compound] |  | IC50 (L6 cells; Rattus norvegicus, L6, read-out: IC50 against L6 cells): 0.006 µg/mL (≈ 0.0145 µM)
